From ChEMBL document CHEMBL5465560, “Selectivity Literature for EUbOPEN Chemogenomic Library” (2024)

Experiments:
[1] = biological target: Serine/threonine-protein kinase WNK1 (Homo sapiens) (UniProt Q9H4A3); test: Selectivity interaction (KinomeScan (DiscoverX)) EUB0000666a WNK1; conditions: at 10 µM
[2] = biological target: T1, Serine/threonine-protein kinase MAK (Homo sapiens) (UniProt P20794); test: Selectivity interaction (KinomeScan (DiscoverX)) EUB0000607a MAK; conditions: at 10 µM
T1 sequence (whole entry): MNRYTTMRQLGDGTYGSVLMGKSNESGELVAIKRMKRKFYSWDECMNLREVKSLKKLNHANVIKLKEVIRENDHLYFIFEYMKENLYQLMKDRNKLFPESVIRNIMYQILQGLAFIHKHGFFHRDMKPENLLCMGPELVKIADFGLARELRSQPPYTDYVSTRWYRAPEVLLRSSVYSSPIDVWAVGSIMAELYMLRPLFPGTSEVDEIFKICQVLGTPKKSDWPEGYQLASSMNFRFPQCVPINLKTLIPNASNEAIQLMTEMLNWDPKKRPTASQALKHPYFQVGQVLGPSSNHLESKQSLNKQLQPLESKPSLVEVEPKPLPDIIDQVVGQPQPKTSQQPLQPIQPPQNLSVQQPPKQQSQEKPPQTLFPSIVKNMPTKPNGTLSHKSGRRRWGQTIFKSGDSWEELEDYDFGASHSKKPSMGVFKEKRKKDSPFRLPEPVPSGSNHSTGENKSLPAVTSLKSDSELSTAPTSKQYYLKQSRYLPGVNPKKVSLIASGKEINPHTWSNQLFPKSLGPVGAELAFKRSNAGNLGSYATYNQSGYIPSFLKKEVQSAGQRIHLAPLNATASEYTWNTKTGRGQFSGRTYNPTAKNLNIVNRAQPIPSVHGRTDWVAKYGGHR

[3] = biological target: LIM domain kinase 1 (Homo sapiens) (UniProt P53667); test: Selectivity interaction (KinomeScan (DiscoverX)) EUB0000695a LIMK1; conditions: at 100 nM
LIM domain kinase 1 (Homo sapiens), sequence (P53667 whole entry, looked up, the tested form may be a part): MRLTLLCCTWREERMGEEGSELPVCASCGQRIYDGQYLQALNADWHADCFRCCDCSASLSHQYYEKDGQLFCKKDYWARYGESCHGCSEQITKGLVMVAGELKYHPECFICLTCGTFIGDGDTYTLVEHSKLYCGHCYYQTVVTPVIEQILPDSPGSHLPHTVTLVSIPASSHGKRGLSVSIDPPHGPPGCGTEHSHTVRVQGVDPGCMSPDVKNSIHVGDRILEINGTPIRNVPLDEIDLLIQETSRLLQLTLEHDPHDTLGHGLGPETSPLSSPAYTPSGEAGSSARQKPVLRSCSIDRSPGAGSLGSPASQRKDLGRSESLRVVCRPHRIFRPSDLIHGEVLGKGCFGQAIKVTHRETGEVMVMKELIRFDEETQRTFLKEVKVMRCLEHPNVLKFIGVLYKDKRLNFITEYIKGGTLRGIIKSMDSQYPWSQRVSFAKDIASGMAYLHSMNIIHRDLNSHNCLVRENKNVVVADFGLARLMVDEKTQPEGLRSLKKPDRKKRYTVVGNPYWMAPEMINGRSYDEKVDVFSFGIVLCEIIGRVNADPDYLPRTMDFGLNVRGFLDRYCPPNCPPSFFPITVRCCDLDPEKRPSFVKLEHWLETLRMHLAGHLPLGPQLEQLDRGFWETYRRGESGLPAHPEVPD

[4] = biological target: T2, Homeodomain-interacting protein kinase 4 (Homo sapiens) (UniProt Q8NE63); test: Selectivity interaction (KinomeScan (DiscoverX)) EUB0001049a HIPK4; conditions: at 1 µM
T2 sequence (whole entry): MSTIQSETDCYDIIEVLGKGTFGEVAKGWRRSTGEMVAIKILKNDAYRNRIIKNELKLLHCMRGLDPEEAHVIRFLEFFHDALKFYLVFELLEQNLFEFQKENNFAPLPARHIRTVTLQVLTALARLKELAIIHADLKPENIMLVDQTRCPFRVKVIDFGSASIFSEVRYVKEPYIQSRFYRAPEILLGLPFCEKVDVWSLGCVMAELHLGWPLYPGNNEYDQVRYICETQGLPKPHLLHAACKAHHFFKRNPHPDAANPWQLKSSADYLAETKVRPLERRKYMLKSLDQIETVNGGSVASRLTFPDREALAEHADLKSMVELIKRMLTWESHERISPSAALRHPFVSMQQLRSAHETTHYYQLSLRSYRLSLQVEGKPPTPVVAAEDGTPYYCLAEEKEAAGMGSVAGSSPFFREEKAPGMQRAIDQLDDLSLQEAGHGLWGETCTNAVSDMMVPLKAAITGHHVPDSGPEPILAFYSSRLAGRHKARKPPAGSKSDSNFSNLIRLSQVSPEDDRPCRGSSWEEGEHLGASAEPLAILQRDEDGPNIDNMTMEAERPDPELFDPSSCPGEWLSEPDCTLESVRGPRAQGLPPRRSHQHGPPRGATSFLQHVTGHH

[5] = tested on: Epidermal growth factor receptor (Homo sapiens), P00533 [UNDEFINED MUTATION]; test: Selectivity interaction (Ambit KINOMEscan and KiNATiv profiling in Jurkat cells) EUB0000090b EGFR; type: cell-based; conditions: at 1 µM
Epidermal growth factor receptor (Homo sapiens), P00533 [UNDEFINED MUTATION], sequence (P00533 whole entry, looked up, change not shown): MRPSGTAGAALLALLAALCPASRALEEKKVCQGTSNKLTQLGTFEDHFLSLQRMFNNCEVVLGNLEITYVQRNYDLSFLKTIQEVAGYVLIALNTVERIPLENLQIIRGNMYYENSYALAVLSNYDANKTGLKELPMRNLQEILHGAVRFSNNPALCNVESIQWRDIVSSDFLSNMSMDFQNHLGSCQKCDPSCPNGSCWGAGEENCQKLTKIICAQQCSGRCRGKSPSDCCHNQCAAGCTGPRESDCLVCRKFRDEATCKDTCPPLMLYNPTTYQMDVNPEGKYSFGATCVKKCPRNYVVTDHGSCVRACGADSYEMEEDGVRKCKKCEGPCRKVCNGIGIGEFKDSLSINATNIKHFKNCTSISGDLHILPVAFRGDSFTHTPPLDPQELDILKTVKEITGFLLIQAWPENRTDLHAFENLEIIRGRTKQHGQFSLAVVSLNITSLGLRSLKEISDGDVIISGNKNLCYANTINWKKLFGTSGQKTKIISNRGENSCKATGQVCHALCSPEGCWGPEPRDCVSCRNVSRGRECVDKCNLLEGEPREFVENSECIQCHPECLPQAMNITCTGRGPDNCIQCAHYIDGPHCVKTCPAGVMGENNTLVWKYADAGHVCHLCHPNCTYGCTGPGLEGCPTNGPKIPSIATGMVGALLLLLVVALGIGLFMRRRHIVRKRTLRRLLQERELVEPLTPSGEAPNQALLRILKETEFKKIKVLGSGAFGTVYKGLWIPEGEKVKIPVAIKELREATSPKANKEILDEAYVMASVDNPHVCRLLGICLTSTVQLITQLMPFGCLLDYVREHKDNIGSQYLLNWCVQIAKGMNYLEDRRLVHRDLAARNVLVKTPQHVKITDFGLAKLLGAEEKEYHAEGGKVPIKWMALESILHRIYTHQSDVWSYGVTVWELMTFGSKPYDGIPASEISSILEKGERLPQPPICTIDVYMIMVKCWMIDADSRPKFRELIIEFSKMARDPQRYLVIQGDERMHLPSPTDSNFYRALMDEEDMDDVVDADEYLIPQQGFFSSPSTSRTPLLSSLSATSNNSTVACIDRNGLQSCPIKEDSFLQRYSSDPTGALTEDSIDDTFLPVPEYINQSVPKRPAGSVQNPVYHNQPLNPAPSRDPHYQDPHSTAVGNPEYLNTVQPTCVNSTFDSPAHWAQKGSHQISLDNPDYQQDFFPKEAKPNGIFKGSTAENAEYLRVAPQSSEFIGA

[6] = biological target: T3, NUAK family SNF1-like kinase 2 (Homo sapiens) (UniProt Q9H093); test: Selectivity interaction (Ambit KINOMEscan and KiNATiv profiling in Jurkat cells) EUB0000090b NUAK2; type: cell-based; conditions: at 1 µM
T3 sequence (whole entry): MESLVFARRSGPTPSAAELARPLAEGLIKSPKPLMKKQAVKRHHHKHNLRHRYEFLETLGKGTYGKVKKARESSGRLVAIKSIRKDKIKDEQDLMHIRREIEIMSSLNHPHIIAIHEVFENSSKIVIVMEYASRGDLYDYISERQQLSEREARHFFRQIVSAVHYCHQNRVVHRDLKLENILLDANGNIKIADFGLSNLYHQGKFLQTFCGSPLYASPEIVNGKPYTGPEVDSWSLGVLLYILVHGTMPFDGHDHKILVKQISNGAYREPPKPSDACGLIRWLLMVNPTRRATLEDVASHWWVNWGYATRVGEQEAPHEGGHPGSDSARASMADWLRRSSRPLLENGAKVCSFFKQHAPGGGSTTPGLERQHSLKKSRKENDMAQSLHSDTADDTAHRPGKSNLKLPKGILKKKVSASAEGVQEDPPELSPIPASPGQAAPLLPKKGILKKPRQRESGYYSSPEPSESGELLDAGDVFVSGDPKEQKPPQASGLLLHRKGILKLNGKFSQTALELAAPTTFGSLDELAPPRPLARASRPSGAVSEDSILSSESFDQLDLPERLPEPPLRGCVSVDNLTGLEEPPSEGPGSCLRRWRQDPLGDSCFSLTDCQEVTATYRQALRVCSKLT

[7] = biological target: SRSF protein kinase 3 (Homo sapiens) (UniProt Q9UPE1); test: Selectivity interaction (KinomeScan (DiscoverX)) EUB0000229b SRPK3; conditions: at 10 µM
[8] = biological target: Receptor-interacting serine/threonine-protein kinase 2 (Homo sapiens, UniProt O43353); test: Selectivity interaction (KinomeScan (DiscoverX)) EUB0000092b RIPK2; conditions: at 10 µM
Receptor-interacting serine/threonine-protein kinase 2, sequence (O43353 whole entry): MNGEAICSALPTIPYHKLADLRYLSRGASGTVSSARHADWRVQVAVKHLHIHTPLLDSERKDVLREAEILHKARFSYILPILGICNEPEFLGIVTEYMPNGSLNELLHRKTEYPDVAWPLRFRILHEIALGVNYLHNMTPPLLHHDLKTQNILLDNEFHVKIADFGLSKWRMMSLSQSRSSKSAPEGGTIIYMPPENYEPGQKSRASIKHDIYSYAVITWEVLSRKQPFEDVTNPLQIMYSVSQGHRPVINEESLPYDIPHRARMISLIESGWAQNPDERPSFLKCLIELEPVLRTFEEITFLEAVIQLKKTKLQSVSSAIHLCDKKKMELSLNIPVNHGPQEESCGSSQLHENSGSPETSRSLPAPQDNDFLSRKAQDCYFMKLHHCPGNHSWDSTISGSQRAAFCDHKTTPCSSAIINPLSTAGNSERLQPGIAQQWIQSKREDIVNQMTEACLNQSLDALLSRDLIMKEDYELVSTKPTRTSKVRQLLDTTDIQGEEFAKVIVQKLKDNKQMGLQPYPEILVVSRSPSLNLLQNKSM

[9] = biological target: Ribosomal protein S6 kinase alpha-2 (Homo sapiens) (UniProt Q15349); test: Selectivity interaction (KinomeScan (DiscoverX)) EUB0000092b RPS6KA2; conditions: at 10 µM

Serine/threonine-protein kinase WNK1 (Homo sapiens), sequence (Q9H4A3 whole entry, looked up): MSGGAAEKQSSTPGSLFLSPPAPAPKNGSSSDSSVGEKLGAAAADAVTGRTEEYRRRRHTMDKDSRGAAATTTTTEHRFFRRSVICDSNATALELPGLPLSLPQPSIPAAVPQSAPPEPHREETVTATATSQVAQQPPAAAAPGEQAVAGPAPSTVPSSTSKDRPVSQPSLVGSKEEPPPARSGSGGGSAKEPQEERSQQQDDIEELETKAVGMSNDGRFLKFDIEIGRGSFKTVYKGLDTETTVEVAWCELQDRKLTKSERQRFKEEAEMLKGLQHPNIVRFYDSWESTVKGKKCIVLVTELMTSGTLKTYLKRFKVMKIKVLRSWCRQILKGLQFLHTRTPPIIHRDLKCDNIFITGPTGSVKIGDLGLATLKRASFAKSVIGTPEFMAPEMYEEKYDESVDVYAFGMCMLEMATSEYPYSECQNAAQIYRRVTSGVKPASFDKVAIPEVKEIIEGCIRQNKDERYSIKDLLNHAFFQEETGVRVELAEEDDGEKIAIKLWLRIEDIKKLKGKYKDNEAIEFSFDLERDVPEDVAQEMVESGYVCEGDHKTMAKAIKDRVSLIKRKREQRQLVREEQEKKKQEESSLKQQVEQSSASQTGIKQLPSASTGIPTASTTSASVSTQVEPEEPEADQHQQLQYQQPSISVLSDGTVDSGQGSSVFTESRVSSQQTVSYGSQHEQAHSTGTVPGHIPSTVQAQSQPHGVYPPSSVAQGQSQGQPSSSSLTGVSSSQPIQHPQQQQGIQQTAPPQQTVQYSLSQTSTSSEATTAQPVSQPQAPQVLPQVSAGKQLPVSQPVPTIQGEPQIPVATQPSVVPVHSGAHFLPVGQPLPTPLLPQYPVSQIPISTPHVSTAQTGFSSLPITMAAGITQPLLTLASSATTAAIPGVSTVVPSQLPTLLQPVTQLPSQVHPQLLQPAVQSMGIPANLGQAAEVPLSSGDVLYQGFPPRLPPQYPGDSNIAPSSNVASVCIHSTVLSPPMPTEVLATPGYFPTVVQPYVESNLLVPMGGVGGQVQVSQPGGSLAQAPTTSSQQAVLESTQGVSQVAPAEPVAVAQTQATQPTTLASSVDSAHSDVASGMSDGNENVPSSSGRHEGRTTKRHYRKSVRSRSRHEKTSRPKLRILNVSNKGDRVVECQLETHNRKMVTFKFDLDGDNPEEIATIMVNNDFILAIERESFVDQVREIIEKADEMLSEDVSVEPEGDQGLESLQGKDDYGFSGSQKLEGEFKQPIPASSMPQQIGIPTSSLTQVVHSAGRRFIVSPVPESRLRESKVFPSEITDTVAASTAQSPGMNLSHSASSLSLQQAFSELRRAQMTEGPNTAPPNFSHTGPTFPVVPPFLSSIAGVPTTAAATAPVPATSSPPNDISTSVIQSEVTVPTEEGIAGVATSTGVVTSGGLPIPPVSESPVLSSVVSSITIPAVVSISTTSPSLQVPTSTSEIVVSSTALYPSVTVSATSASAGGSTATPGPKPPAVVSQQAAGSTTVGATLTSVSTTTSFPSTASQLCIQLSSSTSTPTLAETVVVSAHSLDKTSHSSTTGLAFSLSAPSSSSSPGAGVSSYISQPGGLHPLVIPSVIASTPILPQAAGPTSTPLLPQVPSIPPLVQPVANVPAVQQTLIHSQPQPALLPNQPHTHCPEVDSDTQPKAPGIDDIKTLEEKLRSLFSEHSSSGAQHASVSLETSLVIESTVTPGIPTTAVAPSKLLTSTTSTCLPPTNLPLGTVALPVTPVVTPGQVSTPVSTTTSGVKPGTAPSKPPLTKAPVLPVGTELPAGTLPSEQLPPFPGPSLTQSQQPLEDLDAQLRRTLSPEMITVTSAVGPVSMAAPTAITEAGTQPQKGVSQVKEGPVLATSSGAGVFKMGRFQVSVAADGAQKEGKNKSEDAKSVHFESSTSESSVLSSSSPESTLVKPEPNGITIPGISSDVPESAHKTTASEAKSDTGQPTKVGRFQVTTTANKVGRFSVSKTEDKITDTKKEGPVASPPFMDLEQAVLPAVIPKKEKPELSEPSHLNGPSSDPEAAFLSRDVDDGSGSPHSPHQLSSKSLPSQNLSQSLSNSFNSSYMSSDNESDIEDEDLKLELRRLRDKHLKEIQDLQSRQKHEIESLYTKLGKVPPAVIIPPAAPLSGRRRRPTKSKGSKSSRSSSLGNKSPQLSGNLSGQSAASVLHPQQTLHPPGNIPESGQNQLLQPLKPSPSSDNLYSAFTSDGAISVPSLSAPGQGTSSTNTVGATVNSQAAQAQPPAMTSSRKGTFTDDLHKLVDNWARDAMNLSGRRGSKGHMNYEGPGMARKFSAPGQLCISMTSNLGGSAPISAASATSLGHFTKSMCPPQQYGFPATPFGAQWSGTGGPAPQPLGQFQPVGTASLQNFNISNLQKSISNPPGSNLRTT

O=C(NOC[C@H](O)CO)c1ccc(F)c(F)c1Nc1ccc(I)cc1F
% of control [1]: 92%

CNC(=O)Nc1ccc(-c2nc(N3CC4CCC(C3)O4)c3cnn(C4CCC5(CC4)OCCO5)c3n2)cc1
% of control [2]: 100%

Cc1cc(F)c(C(=O)Nc2cccc(-c3nncn3C(C)C)n2)cc1-n1cnc(C2CC2)c1
% of control [3]: 99%

COc1cc(Nc2nc(C)cc(-c3cnn4nc(OC)ccc34)n2)cc(C(F)(F)F)c1
% of control [4]: 92%

CN(C)C/C=C/C(=O)Nc1ccc(C(=O)N2CCCC(Nc3ncc(Cl)c(-c4c[nH]c5ccccc45)n3)C2)cc1 (centres undefined)
% of control [5]: 77%
% of control [6]: 94%

COc1cc(N(C)c2ccnc3ccc(C(F)(F)F)cc23)cc(OC)c1OC
% binding [7]: 86%

CCC(=O)N1CCN(c2ccc(-n3c(=O)ccc4cnc5ccc(-c6cnc7ccccc7c6)cc5c43)cc2C(F)(F)F)CC1
% of control [8]: 44%
% of control [9]: 100%
